According to US20120142621A1 (priority 2010, published 2012):

Experiments:
[1] = tested on: septic peritonitis via CLP; test: CLP model of intra-abdominal sepsis: survival / mortality; format: in vivo, rat; conditions: same CLP model, FIG. 4
Description: Effect of Glyco 23 on mortality in intra-abdominal sepsis. […] The CLP model was chosen for its reproducible mortality rates and its ability to mimic fecal peritonitis.
This dose is well below the LD50 (6-7 gm/kg) of naturally occurring sophorolipids in rodents.^(40,41). Doses were given at the end of the surgery, and animals were followed for 36 hours. Kaplan Meier statistics were performed on survival.

[2] = tested on: septic peritonitis via CLP; test: Survival, WBC and blood culture at 3 hours and 24 hours post insult (CLP); format: in vivo, rat; conditions: 5 mg/kg IV at end of surgery, n=6/group; for Survival 24 Hs. post insult: % printed only over the 3 hours column
Description: Survival at 3 hours and 24 hours post insult. […] Doses were given at the end of the surgery, and animals were followed for 24 hours (Table 1)

[3] = tested on: standard bacterial isolates; test: Antibiotic activity, broth microdilution method; format: cell-based; conditions: clinically relevant concentrations
[4] = tested on: galactosamine-sensitized LPS endotoxic shock; test: Galactosamine-sensitized LPS endotoxic shock mortality; format: in vivo, mouse
From the text: Therefore, treatment after 2 hr can be compared to treatment after 24 hrs or later in conventional models.

IL-1 = test: Cytokine responses in vitro: IL-1; format: cell-based; conditions: compared with the natural mixture responses, FIG. 5
IL-8 = test: Cytokine responses in vitro: IL-8; format: cell-based; conditions: compared with the natural mixture responses, FIG. 5
IL-1β = test: RNase Protection Assay, splenocyte mRNA of CLP-septic rats: IL-1β; format: in vivo, rat; conditions: 5 mg/kg; splenocytes at 6 hrs; percent control (CLP+vehicle) +/- SEM; P<0.05
From the text: (§1) Data are expressed as percent control (CLP+vehicle)+/−SEM. Treatment groups were significant (p<0.05) compared with control using student's T test. CLP=cecal ligation and puncture; SL=sophorolipid

TGF-β1 = test: RNase Protection Assay, splenocyte mRNA of CLP-septic rats: TGF-β1; format: in vivo, rat; conditions: splenocytes at 6 hrs; percent control (CLP+vehicle) +/- SEM; P<0.05
From the text: as §1

[5] = tested on: LPS-induced immunologically relevant genes in mouse macrophages; test: Microarray analysis of macrophages cultured with LPS +/- Glyco 23; format: cell-based; conditions: Affymetrix Murine Genome Array U74Av2; LPS maximum set as 100%
Description: The maximum level of each gene expression attained in the presence of LPS was set as 100%. […] The analysis was performed using the Affymetrix GeneChip® Murine Genome Array U74Av2 probe array.

CD14 = target: T1, CD14 (Mus musculus, UniProt P10810); test: Macrophage surface expression by antibody staining: CD14; format: cell-based; conditions: RAW264.7 macrophages, 10 μg/ml, 30 min
T1 construct: endogenous in cells; host or cells: RAW264.7 macrophages
T1 sequence (P10810 16-336): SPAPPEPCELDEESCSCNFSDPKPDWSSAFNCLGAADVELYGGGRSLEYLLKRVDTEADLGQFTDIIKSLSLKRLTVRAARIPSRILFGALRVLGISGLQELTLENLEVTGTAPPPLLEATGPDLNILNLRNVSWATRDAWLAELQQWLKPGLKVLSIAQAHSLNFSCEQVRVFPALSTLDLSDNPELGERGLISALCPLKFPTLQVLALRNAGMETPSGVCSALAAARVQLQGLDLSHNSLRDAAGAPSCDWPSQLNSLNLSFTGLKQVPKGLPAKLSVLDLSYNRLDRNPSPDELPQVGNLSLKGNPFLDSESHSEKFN
Description: (§2) Effects of Glyco 23 on TLR pathway: We studied expression of macrophage CD14 and TLR4 in an in vitro model system using cultured macrophages to relate Glyco 23 mechanism of action to events upstream of cytokine gene expression. […] This observation is significant in light of very recent studies showing that CD14 inhibition using anti-CD14 antibodies in an in vivo pig model of gram-negative sepsis and endotoxemia.^(42)
(§3) Macrophages (RAW264.7) were incubated in the absence or presence of sophorolipids (SL, 10 μg/ml, 30 min, room temperature), washed with phosphate-buffered saline (PBS), and anti-CD 14 or anti-TLR4 antibodies (Santa Cruz Biotechnology, 10 μg/ml, 30 min, room temperature). The cells were then washed with PBS and staining was performed using ABC staining system (Santa Cruz Biotechnology), according to manufacturer's instructions. The cells were then fixed with 1% formaldehyde and examined microscopically. A total of 200 cells were scored in triplicate for each determination, and results expressed as % of total cells counted.

TLR4 = target: T2, TLR4 (Mus musculus, UniProt Q9QUK6); test: Macrophage surface expression by antibody staining: TLR4; format: cell-based; conditions: RAW264.7 macrophages, 10 μg/ml, 30 min
T2 construct: endogenous in cells; host or cells: RAW264.7 macrophages
T2 sequence (Q9QUK6 26-835): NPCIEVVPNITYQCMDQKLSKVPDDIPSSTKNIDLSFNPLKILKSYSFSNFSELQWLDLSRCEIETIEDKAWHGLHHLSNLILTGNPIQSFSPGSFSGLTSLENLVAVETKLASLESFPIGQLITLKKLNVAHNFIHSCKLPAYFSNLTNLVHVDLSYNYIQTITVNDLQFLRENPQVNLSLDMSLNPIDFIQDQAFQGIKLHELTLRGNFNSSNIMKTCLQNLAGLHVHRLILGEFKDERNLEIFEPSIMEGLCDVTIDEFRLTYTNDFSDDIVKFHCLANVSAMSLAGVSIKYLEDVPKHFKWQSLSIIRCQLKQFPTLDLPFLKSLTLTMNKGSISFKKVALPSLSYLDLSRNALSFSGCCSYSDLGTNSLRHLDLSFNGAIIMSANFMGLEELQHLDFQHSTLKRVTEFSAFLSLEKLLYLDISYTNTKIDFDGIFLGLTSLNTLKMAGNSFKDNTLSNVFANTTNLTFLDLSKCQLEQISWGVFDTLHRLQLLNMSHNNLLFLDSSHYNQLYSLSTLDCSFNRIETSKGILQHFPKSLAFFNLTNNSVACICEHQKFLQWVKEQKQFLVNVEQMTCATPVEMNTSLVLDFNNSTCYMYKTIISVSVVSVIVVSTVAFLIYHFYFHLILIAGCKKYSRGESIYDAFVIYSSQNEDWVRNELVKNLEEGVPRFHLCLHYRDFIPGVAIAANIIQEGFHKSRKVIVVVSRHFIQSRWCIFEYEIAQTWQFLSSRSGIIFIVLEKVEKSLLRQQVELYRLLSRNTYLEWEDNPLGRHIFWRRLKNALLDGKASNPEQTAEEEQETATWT
Description: as §2, §3

[6] = Dosage finding after CLP, tail vein IV; format: in vivo; conditions: 24 mg/kg IV in 50% ethanol-PBS; possibly due to ethanol concentration
Description: Dosage To determine the optimum dose that can be administered to the rats, 3 different doses of Glyco 23, 6 mg/kg, 12 mg/kg and 24 mg/kg of rat body weight (in 50% ethanol-PBS) was administered using tail vein IV to 9 rats following the Cecal Ligation and Puncture (CLP). Control rats (n=3) were injected with 0.5 ml of PBS. […] Rats that received […] and 12 mg/kg doses survived after 24 hours. Blood was obtained before they were sacrificed the next day.

Interleukin-6 (IL-6) = test: Serum IL-6 by ELISA 3 hrs after CLP; format: in vivo, rat; conditions: natural mixture versus free acid form, FIG. 10
Description: Serum samples were obtained from rats (N=5 animals/group) 3 hrs. after (CLP) to establish polymicrobial sepsis, and intravenous injection of saline (control), sophorolipids-natural mixture (SL) or Glyco 23. Serum concentrations of Interleukin-6 (IL-6) were determined using commercial ELISA tests according to manufacturer's instructions. Results were evaluated for statistical significance using ANOVA.

Compound	Mortality rate reduced compared to vehicle [1]	Survival % 3 hours post insult [2]	Survival 24 Hs. post insult [2]	antibiotic activity [3]	Mortality (%) ([4]; LPS at 0 hs, Glyco at 0 hs, n = 9)	Mortality (%) ([4]; LPS at 0 hs, Glyco at 1.5 hs, n = 10)	Mortality (%) ([4]; LPS at 1.5 hs, Glyco at 0 hs, n = 10)	decrease of endotoxin mortality ([4]; administered 2 hr after insult, versus positive control mice)	IL-1 cytokine response suppression (IL-1)	IL-8 cytokine response suppression (IL-8)	reduction in IL-1β expression (mRNA) (IL-1β)	increased expression of TGF-β1 (mRNA) (TGF-β1)	expression of genes upregulated more than 5 fold by LPS [5]	surface expression of CD14 (CD14)	surface expression of TLR4 (TLR4)	time to death of all rats [6]	difference between the inhibitory effects on serum IL-6 (Interleukin-6 (IL-6))
CCOC(=O)CCCCCCC/C=C\CCCCCCC(C)OC1O[C@H](CO)[C@@H](O)[C@H](O)[C@H]1OC1O[C@H](CO)[C@@H](O)[C@H](O)[C@H]1O (relative stereo) [Glyco 23, Ethyl-17-L-[(2′-O-D-glucopyranosyl-D-glucopyranosyl)-oxy]-cis-9-octadecenoate]	37%	100%	100%	no significant antibiotic activity	89%	30%	80%	56%	decreased	decreased	42.5%±4.7%	11.7±1.5%	suppressed	interferes with surface expression	interferes with surface expression	≤ 2 h	–
CC(CCCCCC/C=C\CCCCCCCC(=O)O)O[C@@H]1O[C@H](CO)[C@@H](O)[C@H](O)[C@H]1O[C@@H]1O[C@H](CO)[C@@H](O)[C@H](O)[C@H]1O (relative stereo) [Sohorolipid Free Acid derivative, 17-L-[(2′-O-b-D-glucopyranosyl-b-D-glucopyranosyl)-oxy]-cis-9-octadecenoatede-acetylated free acid]	–	100%	90%	–	–	–	–	–	–	–	–	–	–	–	–	–	No significant difference
Lipid A [reference compound]	–	50%	32%	–	–	–	–	–	–	–	–	–	–	–	–	–	–
